# How the values were obtained:
# [1] = test system: human H460 tumors in mice; assay: Microarray gene expression analysis, implanted H460 tumors in vivo
# Method: Biological analysis was performed using Biointerpreter software.
# Human non-small cell lung carcinoma NSCLC-H460 cells (2 million) were injected subcutaneously in the animal flank and allowed to form solid tumors. Tumor fragments were passaged in animals for a minimum of three times before their use. Tumor fragments (about 30 mg) were implanted subcutaneously through a small surgical incision under general anesthesia to Balb/cA female nude mice (6-8 weeks old). Recipient animals were treated with either vehicle (0.1 N HCl) or MGCD0103 (2HBr salt, in 0.1 N HCl) 100 mg/kg orally. Tumors were harvested after one dose of either 6 hour or 24 hours post administration of vehicle or MGCD0103. Each experimental group contained 3 animals. Tumor tissues were deposited in RNAlater (Qiagen, Missisauga Ontario) for total RNA extraction.
# [2] = test system: peripheral white blood cells of patients; assay: Real time RT-PCR of gene transcription in patients' peripheral white cells in vivo; design: species or system human
# Method: FIG. 8. Induction of MT3 (A) and AREG (B) transcription in vivo in patients with solid tumor who received treatment with MGCD0103 for one week (three doses per week). At day 8 (72 h after the third dose), peripheral white blood cells were isolated and RNA extracted and analyzed by qRT-PCR
# FIG. 12. Induction of transcription of three tumor suppressor genes, BTG1, TNFSF9 and p21 in peripheral white cells from Patient A in vivo as determined by real time RT-PCR. Note that both BTG1 and TNFSF9 were identified in FIG. 11 using microarray expression analysis and their expression is confirmed in vivo by real time RT-PCR.
# FIG. 13. Induction of transcription of three tumor suppressor genes, BTG1, TNFSF9 and p21 in peripheral white cells from a MDS patient with clinical response (Patient E) and a MDS patient without response (Patient F) in vivo as determined by real time RT-PCR. Blood samples were drawn 48 hr post the 2nd dose in cycle 1.
# (§1) Whole blood from either consenting healthy volunteers or consenting patients was centrifuged at 2500 rpm for 10 minutes at ambient temperature in a Sorvall RT-7 centrifuge (Mandel Scientific Co., Guelph, Ontario). Plasma was removed and buffy coat was collected. Five volumes of Erythrocyte Lysis Buffer (EL) (Qiagen Canada Inc., Mississauga, Ontario) were added into buffy coat. Buffy coat was incubated on ice for 20 minutes before it was centrifuged at 400 g for 10 minutes at 4° C. Supernatant was removed and buffy coat was washed twice with EL buffer and re-centrifuged. Buffy coat was resuspended in RPMI media and cells were counted with trypan blue exclusion. To isolate PBMCs, buffy coat cells were centrifuged over Lymphoprep (Axis-Shield, 1114544), and any remaining erythrocytes in the sample were lysed by treatment with EL lysis buffer (Qiagen, 79217). The cell pellets are washed and then re-suspended in RPMI containing 10% FBS.
# Quantitative PCR with SYBR Green I detection with Mastercycler® ep realplex (Eppendorf) was performed using LightCycler® 480 SYBR Green I Master (Roche Diagnostics). SYBR Green I assays were performed with 600 nM primers. All other reaction conditions were as described by the manufacturer. Amplification conditions were 5 minutes of initial denaturation at 95° C., followed by 40 cycles of each 15 seconds at 95° C., 15 seconds at 63.4° C., 20 seconds at 68° C., a melting curve from 60° C. to 95° C. was recorded. Quantification was performed using Pfaffl method, a relative quantification method in real-time PCR (Nucleic Acids Research 2001 29:2002-2007). Primers were synthesized by Invitrogen (Invitrogen-Canada, Burlington, Ont.).
# Human patients with either solid tumors or leukemia/MDS diseases were enrolled in phase I studies with consensus forms. […]
# HDAC activity = assay: Fluorescence-based whole cell HDAC enzyme assay in patients' peripheral white blood cells; format: in vivo, human
# Method: At day 8 (72 h after the third dose), peripheral white blood cells were tested for HDAC activity by whole cell assay
# as §1
# (§2) Human patients with either solid tumors or leukemia/MDS diseases were enrolled in phase I studies with consensus forms. MGCD0103 were dosed into patients orally every other day (day 1, day 3, day 5 […]). Blood samples were withdrawled by using the Vacutainer sodium-heparin blood collection tubes (Becton Dickinson Laboratories, Franklin Lakes, N.J.) and shipped to the test site within 24 hours on ice-pack. Baseline samples were drawn immediately prior to the first drug dose, while the 24 hour samples were drawn at 24 hours post the first drug dose. The 48 hours samples were drawn at 48 hours post the first dose. For the 1 week samples, blood was drawn 72 hours after day 5 dose (3 accumulated doses during week 1).
# Freshly trypsinized cells or cells in suspension were dispensed in 96-well black Costar E1A/RIA plates (Corning Inc., Corning, N.Y.). We typically used 5×10^4 to 2×10^5 cells per well, and 8×10^5 white blood (mouse or human) cells/per well. Small molecule substrate Boc-Lys(Ac)-AMC (Bachem Biosciences Inc., King of Prussia, Philadelphia) were added to cell suspension with the final concentration of 300 uM. Cells were placed in a 37° C. incubator with 5% CO2 for 90 minutes (in the case of white blood cells, we incubated for 60 min). Fluorescence was read immediately before adding stop mixture to get a background. […] Fluorescence was developed for 15 minutes at 37° C. and read in a fluorometer (SPECTRAMAX GeminiXS, Molecular Devices, Sunnyvale, Calif.) with an excitation wavelength at 360 nm, emission at 470 nm, and a cutoff of 435 nm.
# IL-6 and IL-8 = assay: Cytokine antibody array of patient plasma; format: in vivo, human; conditions: two leukemia patients treated orally; cytokine antibody array (FIG. 16)
# Method: FIG. 16 Induction of IL-6 and IL-8 expression in plasma from two leukemia patients treated with MGCD0103 orally in vivo, as determined by cytokine antibody array.
# as §2
# 10 ml blood from patients were centrifuged at 2500 RPM for 10 min at 10° C. […] The levels of cytokines in the plasma were determined using the TranSignal Human Cytokine Antibody Array 1.0 (Cat#MA6120, Panomics Inc. Redwood City, Calif.) following the manufacturer's instructions. […] Blots were developed by autoradiography, scanned and quantitated using the Cyclone Software. Data was calculated, plotted using Excel and expressed as fold induction from Day 8 following treatment over baseline Day 0 samples.
smiles,measurement,setting,value
Nc1ccccc1NC(=O)c1ccc(CNc2nccc(-c3cccnc3)n2)cc1 [MGCD0103],Fold induction of CDKN1C transcription,[1],3.1 fold
same,Fold induction of CXCL14 transcription,[1],3.4 fold
same,Fold induction of IER3 transcription,[1],3.2 fold
same,Fold induction of KRTHA2 transcription,[1],2.6 fold
same,Fold induction of MT3 transcription,[1],2.2 fold
same,Fold induction of PROM1 transcription,[1],3.1 fold
same,Fold induction of SNIP transcription,[1],2.8 fold
same,Fold induction of SOD2 transcription,[1],2.8 fold
same,Fold induction of TNF transcription,[1],2.8 fold
same,"Induction of transcription of BTG1, TNFSF9 and p21","[2]; MDS patient with clinical response (Patient E), 48 hr post 2nd dose in cycle 1 (FIG. 13)",Induction
same,induction of MT3 transcription in vivo,"[2]; patients with solid tumors, one week (three doses per week), day 8, qRT-PCR (FIG. 8A)",induction
same,induction of AREG transcription in vivo,"[2]; patients with solid tumors, one week (three doses per week), day 8, qRT-PCR (FIG. 8B)",induction
same,"Induction of transcription of BTG1, TNFSF9 and p21","[2]; peripheral white cells, AML Patient A, real time RT-PCR (FIG. 12)",Induction
same,inhibition of HDAC activity in peripheral white cells,HDAC activity; AML Patient A with clinical response (FIG. 9),Time-dependent inhibition
same,HDAC inhibition,"HDAC activity; AML patient (Patient A) with clinical response, day 8",68%
same,HDAC inhibition in vivo in peripheral white blood cells,"HDAC activity; patients with solid tumors, one week (three doses per week), day 8 (FIG. 7)",dose-dependent HDAC inhibition
same,average HDAC inhibition,"HDAC activity; three other AML patients (no response), day 8",< 5%
same,induction of IL-6 and IL-8 expression in plasma,IL-6 and IL-8,induction
